Assay results reported in patent US20060084627A1, “Synergistic interaction of abacavir and alovudine” (Medivir AB, priority 2002, published 2006).

Legend:
multiresistant HIV = settings: patients, alovudine 7.5 mg qd add-on for four weeks
Experimental: A phase IIa trial was performed with 15 patients failing their current NRTI-containing regimens. Each patient had HIV RNA>1000 cp/ml, with at least 2 mutations in the viral RT induced by previous viral therapy, as established by genotypic assay.
The patents were administered qd 7.5 mg alovudine in a conventional carrier in addition to their current regimen for four weeks. The current regimes included various permutations of 3-5 HIV antivirals selected from 3TC, ddI, D4T, nevirapine, DMP, ritonavir, kaletra, saquinavir, amprenavir and indinavir, administered in their conventional dosage forms and regimens. Antiviral load evaluation was performed weekly and then four weeks after discontinuation of alovudine.
As this clinical trial was performed as an add-on therapy to the patients pre-existing regime, it will be appreciated that the alovudine qd was administered in a separate dosage form to the abacavir (typically bd) and other antvirals (typically administered […]).

HIV-1, IIIb = experiment: microbe, parasite or virus in culture; assay type: cell-based; settings: Human immunodeficiency virus 1, IIIB, MT4; alovudine alone at 0.003 uM, FIG. 3
Experimental: The antiviral effects of MIV-310 in combination with other NRTIs on HIV-1 replication in MT4 cells were examined by the median effect method (Chao and Talalay 1983). The assay was performed in microtiter plates with each well containing 10^5 cells and 20-50 tissue culture infective doses of HIV-1, IIIb. Each drug alone and a mixture of the drugs in a constant ratio were serially diluted in 2-fold steps and added to the wells in quadruplicates. The constant ratio is selected to reflect the relative potency of the drugs. […] The anti-viral effect was measured day 5 using the XTT calorimetric method.
A combination index (CI) less than 1 indicates synergism, CI equal to zero indicates addition and a CI greater than 1 indicates antagonism. Once again, the combinations have been tested at molar ratios reflecting their relative ED50s in cell culture.

## Cc1cn([C@H]2C[C@H](F)[C@@H](CO)O2)c(=O)[nH]c1=O [alovudine, 3′-deoxy-3′-fluorothymidine]
Multiresistant HIV
  serious adverse events: no serious adverse events
  tolerability: generally well tolerated
  transient mean increase in CD4 counts: +52 counts/mm^3
HIV-1, IIIb
  inhibition at 0.003 µM: 27%
